Results published in ChEMBL document CHEMBL1159146, “Structure-activity studies of N-cyano-3-pyridinecarboxamidines and their amide and thioamide congeners” (1994).

Columns and labels:
Format in all cases: functional
[1] = organism: Cavia porcellus; test: Compound was tested for chronotropic activity in right atria of guinea pig
[2] = organism: Cavia porcellus; test: Compound was tested for negative inotropic activity in left atria of guinea pig
[3] = organism: Rattus norvegicus; test: Compound was tested for […] vasorelaxing activity in aorta of rat

Structure (SMILES)	pD2 [1]	pD2 [2]	pD2 [3]
S=C(NCCc1ccccc1)c1cccnc1	4.1	4.39	4.95
O=C(NCCc1ccccc1)c1cccnc1	<3.5	<3.5	4.09
N#CN/C(=N\CCc1ccccc1)c1cccnc1	3.85	4.6	6.4
N#CN/C(=N\CCO[N+](=O)[O-])c1cccnc1	4.42	4.84	6.95
S=C(NCCc1ccccc1Cl)c1cccnc1	4.54	<4.5	5.64
N#CN/C(=N\CCc1ccccc1Cl)c1cccnc1	5.32	5.51	7.57
O=C(NCCc1ccccc1Cl)c1cccnc1	<3.5	3.7	4.83
O=C(NCCO[N+](=O)[O-])c1cccnc1 [NICORANDIL]	<3.5	<3.5	5.62
